PubChem BioAssay (NCI)
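Interpolation was linear, between the two tested concentrations surrounding the appropriate level; five concentrations were tested over 48 hours in 96-well plates. TGI denotes the concentration required for complete inhibition of growth.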

Key:
Assay in all cases: NCI tumour cell line growth inhibition, 48 h
786-0 renal = tested on: 786-0 renal
A498 renal = tested on: A498 renal
A549 NSCLC = tested on: A549 NSCLC
ACHN renal = tested on: ACHN renal
BT-549 breast = tested on: BT-549 breast
CAKI-1 renal = tested on: CAKI-1 renal
DU-145 prostate = tested on: DU-145 prostate
EKVX NSCLC = tested on: EKVX NSCLC
HCC-2998 colon = tested on: HCC-2998 colon
HCT-116 colon = tested on: HCT-116 colon
HCT-15 colon = tested on: HCT-15 colon
HL-60(TB) leukemia = tested on: HL-60(TB) leukemia
HOP-62 NSCLC = tested on: HOP-62 NSCLC
HOP-92 NSCLC = tested on: HOP-92 NSCLC
HS 578T breast = tested on: HS 578T breast
HT29 colon = tested on: HT29 colon
IGROV1 ovarian = tested on: IGROV1 ovarian
K-562 leukemia = tested on: K-562 leukemia
KM12 colon = tested on: KM12 colon
LOX IMVI melanoma = tested on: LOX IMVI melanoma
M14 melanoma = tested on: M14 melanoma
MCF7 breast = tested on: MCF7 breast
MDA-MB-231 breast = tested on: MDA-MB-231 breast
MDA-MB-435 = tested on: MDA-MB-435
MDA-N = tested on: MDA-N
MOLT-4 leukemia = tested on: MOLT-4 leukemia
NCI-H226 lung = tested on: NCI-H226 lung
NCI-H23 lung = tested on: NCI-H23 lung
NCI-H460 lung = tested on: NCI-H460 lung
NCI-H522 lung = tested on: NCI-H522 lung
NCI/ADR-RES ovarian = tested on: NCI/ADR-RES ovarian
OVCAR-3 ovarian = tested on: OVCAR-3 ovarian
OVCAR-4 ovarian = tested on: OVCAR-4 ovarian
OVCAR-5 ovarian = tested on: OVCAR-5 ovarian
OVCAR-8 ovarian = tested on: OVCAR-8 ovarian
PC-3 prostate = tested on: PC-3 prostate
RPMI-8226 leukemia = tested on: RPMI-8226 leukemia
RXF 393 renal = tested on: RXF 393 renal
SF-268 CNS = tested on: SF-268 CNS
SF-295 CNS = tested on: SF-295 CNS
SF-539 CNS = tested on: SF-539 CNS
SK-MEL-2 melanoma = tested on: SK-MEL-2 melanoma
SK-MEL-28 melanoma = tested on: SK-MEL-28 melanoma
SK-MEL-5 melanoma = tested on: SK-MEL-5 melanoma
SNB-75 CNS = tested on: SNB-75 CNS
SR leukemia = tested on: SR leukemia
SW-620 colon = tested on: SW-620 colon
T-47D breast = tested on: T-47D breast
TK-10 renal = tested on: TK-10 renal
U251 CNS = tested on: U251 CNS
UACC-257 melanoma = tested on: UACC-257 melanoma
UO-31 renal = tested on: UO-31 renal
CCRF-CEM leukemia = tested on: CCRF-CEM leukemia
COLO 205 colon = tested on: COLO 205 colon
MALME-3M melanoma = tested on: MALME-3M melanoma
SK-OV-3 ovarian = tested on: SK-OV-3 ovarian
SN12C renal = tested on: SN12C renal
SNB-19 CNS = tested on: SNB-19 CNS
UACC-62 melanoma = tested on: UACC-62 melanoma

N#CC(C#N)=C1C(=Cc2ccc(OCCCCCCCCCCSSCCCCCCCCCCOc3ccc(C=C4C(=C(C#N)C#N)c5ccccc5C4=C(C#N)C#N)cc3)cc2)C(=C(C#N)C#N)c2ccccc21
TGI (786-0 renal): 41.7 µM
TGI (A498 renal): 48.5 µM
TGI (A549 NSCLC): 31 µM
TGI (ACHN renal): > 100 µM
TGI (BT-549 breast): 38.9 µM
TGI (CAKI-1 renal): 71.2 µM
TGI (DU-145 prostate): 47.7 µM
TGI (EKVX NSCLC): 43.1 µM
TGI (HCC-2998 colon): 28.9 µM
TGI (HCT-116 colon): 30.8 µM
TGI (HCT-15 colon): 31.6 µM
TGI (HL-60(TB) leukemia): 2.36 µM
TGI (HOP-62 NSCLC): 47.6 µM
TGI (HOP-92 NSCLC): 34.9 µM
TGI (HS 578T breast): 52.4 µM
TGI (HT29 colon): 34.1 µM
TGI (IGROV1 ovarian): > 100 µM
TGI (K-562 leukemia): 60.4 µM
TGI (KM12 colon): 78.1 µM
TGI (LOX IMVI melanoma): 35.6 µM
TGI (M14 melanoma): 47.9 µM
TGI (MCF7 breast): 48 µM
TGI (MDA-MB-231 breast): > 100 µM
TGI (MDA-MB-435): > 100 µM
TGI (MDA-N): 88.3 µM
TGI (MOLT-4 leukemia): 80 µM
TGI (NCI-H226 lung): 63.6 µM
TGI (NCI-H23 lung): 32.6 µM
TGI (NCI-H460 lung): 44.7 µM
TGI (NCI-H522 lung): 34.7 µM
TGI (NCI/ADR-RES ovarian): 38.8 µM
TGI (OVCAR-3 ovarian): 89 µM
TGI (OVCAR-4 ovarian): 52.9 µM
TGI (OVCAR-5 ovarian): 35.5 µM
TGI (OVCAR-8 ovarian): > 100 µM
TGI (PC-3 prostate): 47.8 µM
TGI (RPMI-8226 leukemia): > 100 µM
TGI (RXF 393 renal): 67.2 µM
TGI (SF-268 CNS): 55.1 µM
TGI (SF-295 CNS): 45.7 µM
TGI (SF-539 CNS): 47 µM
TGI (SK-MEL-2 melanoma): 64 µM
TGI (SK-MEL-28 melanoma): 52.4 µM
TGI (SK-MEL-5 melanoma): 52.3 µM
TGI (SNB-75 CNS): > 100 µM
TGI (SR leukemia): 68 µM
TGI (SW-620 colon): 52.1 µM
TGI (T-47D breast): > 100 µM
TGI (TK-10 renal): > 100 µM
TGI (U251 CNS): 46.8 µM
TGI (UACC-257 melanoma): > 100 µM
TGI (UO-31 renal): 40.2 µM

CC(=O)Oc1c(C)c2c(c3ncccc13)OC(C)C2 (stereo not given)
TGI (786-0 renal): 26.7 µM
TGI (A498 renal): 58.3 µM
TGI (A549 NSCLC): 26.2 µM
TGI (ACHN renal): 24.5 µM
TGI (BT-549 breast): 35.6 µM
TGI (CAKI-1 renal): 27.8 µM
TGI (CCRF-CEM leukemia): 38.5 µM
TGI (COLO 205 colon): 35.7 µM
TGI (DU-145 prostate): 29.8 µM
TGI (EKVX NSCLC): 30.8 µM
TGI (HCC-2998 colon): 28.7 µM
TGI (HCT-116 colon): 32.3 µM
TGI (HCT-15 colon): 24.5 µM
TGI (HL-60(TB) leukemia): 38.8 µM
TGI (HOP-62 NSCLC): 30.9 µM
TGI (HOP-92 NSCLC): 28.2 µM
TGI (HS 578T breast): 59.4 µM
TGI (HT29 colon): 36.8 µM
TGI (IGROV1 ovarian): 20.1 µM
TGI (K-562 leukemia): 35.5 µM
TGI (KM12 colon): 28.7 µM
TGI (M14 melanoma): 28.5 µM
TGI (MALME-3M melanoma): 30.2 µM
TGI (MCF7 breast): 32.5 µM
TGI (MDA-MB-231 breast): 26.2 µM
TGI (MDA-MB-435): 19 µM
TGI (MDA-N): 32.3 µM
TGI (MOLT-4 leukemia): 25.9 µM
TGI (NCI-H226 lung): 32.8 µM
TGI (NCI-H23 lung): 32.9 µM
TGI (NCI-H460 lung): 22.7 µM
TGI (NCI-H522 lung): 15.4 µM
TGI (NCI/ADR-RES ovarian): 35.9 µM
TGI (OVCAR-3 ovarian): > 100 µM
TGI (OVCAR-4 ovarian): 29.9 µM
TGI (OVCAR-5 ovarian): 31 µM
TGI (OVCAR-8 ovarian): 27.5 µM
TGI (PC-3 prostate): 92.1 µM
TGI (RPMI-8226 leukemia): 45.1 µM
TGI (RXF 393 renal): 30.9 µM
TGI (SF-268 CNS): 28.8 µM
TGI (SF-295 CNS): 28.5 µM
TGI (SF-539 CNS): 28.7 µM
TGI (SK-MEL-2 melanoma): 40.1 µM
TGI (SK-MEL-28 melanoma): 26.8 µM
TGI (SK-MEL-5 melanoma): 27.5 µM
TGI (SK-OV-3 ovarian): 54.2 µM
TGI (SN12C renal): 30.1 µM
TGI (SNB-19 CNS): > 100 µM
TGI (SNB-75 CNS): 28 µM
TGI (SR leukemia): 22.7 µM
TGI (SW-620 colon): 27.2 µM
TGI (T-47D breast): 34.8 µM
TGI (TK-10 renal): 49.2 µM
TGI (U251 CNS): 28.8 µM
TGI (UACC-257 melanoma): 28.6 µM
TGI (UACC-62 melanoma): 24.6 µM
TGI (UO-31 renal): 28.4 µM
